Experimental data published in the METLIN SMRT retention time set (Domingo-Almenara et al. 2019).

assay: gradient 5% acetonitrile 3 min, to 50% in 2 min, to 85% in 15 min, held 3 min, 100 µL/min; conditions: column: Zorbax Extend-C18 2.1 x 50 mm; eluents: water / acetonitrile, 0.1% formic acid
Outline: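 Standards, all pure, were combined into mixtures of ~100 molecules and run at 100 μL/min on a Zorbax Extend-C18 column (2.1 × 50 mm, 1.8 μm) with water and acetonitrile, each containing 0.1% formic acid. A coupled quadrupole time-of-flight mass spectrometer operated in positive and negative ionization mode. Retention time values come from computationally picked adduct peaks, each inspected manually.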

Structure (SMILES) | RP-LC retention time
O=C(CN1C(=O)CCCc2cc(S(=O)(=O)N3CCCCC3)ccc21)N1CCCCC1 | 819 s
O=C(NC1CCN(c2cc(-c3ccc(F)cc3)[nH]n2)C1)c1cccc(F)c1 (centres undefined) | 735 s
Cn1cc(-c2cc3n(n2)CCC(=O)N3CCCC(=O)NCc2cccnc2)c2ccccc21 | 616 s
CCCCN1CCN(S(=O)(=O)c2ccc(-c3nnc(C4CCCC4)o3)o2)CC1 | 678 s
COc1ccc(N2CCN(C(=O)C3(c4ccc(NC(=O)C5CC5)cc4)CCC3)CC2)cc1 | 816 s
Cc1ccc(Nc2c(C(=O)N3CCOCC3)cnc3nc(C)ccc23)cc1 | 598 s
O=C(CCSc1ccccc1)N1CCN(CC(F)(F)F)CC1 | 870 s
CCOC(=O)Cc1[nH]nc2ccc(F)cc12 | 697 s
O=C(Nc1cccc(F)c1)C1CCCN(S(=O)(=O)c2c[nH]c(C(=O)N3CCCC3)c2)C1 (centres undefined) | 808 s
Cc1cccc(Sc2nccnc2N2CCC(C(=O)NCCN3CCOCC3)CC2)c1 | 668 s
CCCOc1nc2ccccc2nc1N1CCCC(C(=O)Nc2ccccc2OCC)C1 (centres undefined) | 1280 s
O=C(Cn1nc2n(c1=O)CCCC2)N1CCN(c2ccc(F)cc2)CC1 | 651 s
CCC(=O)N1CCc2cc(-c3ccc(C(=O)NC(C)C(=O)N4CCCCC4)cc3)ccc21 (centres undefined) | 846 s
CC(=O)N1CCc2sc(C(=O)NCc3cccc(Br)c3)cc2C1 | 768 s
COc1cccc(CN2CCC3(CC2)CN(c2ncccn2)CC3CO)n1 (centres undefined) | 562 s
O=c1n(Cc2c(F)cccc2Cl)nc2c(S(=O)(=O)N3CCc4ccccc4C3)cccn12 | 975 s
CCc1nc(OCC(=O)Nc2cc(F)ccc2F)c2ccccc2n1 | 854 s
CCc1nc2ccccc2c(=O)n1Cc1noc(-c2ccc(OC)cc2OC)n1 | 918 s
COc1ccc(NS(=O)(=O)c2cn(CC(C)C)c3ncccc23)cc1F | 896 s
COCc1cc(=O)n(CC(=O)Nc2ccc(C)cc2C)c(N2CCOCC2)n1 | 844 s
Cc1nc(-c2cn(C(C)C)c3ncccc23)sc1C(=O)Nc1ccc2c(c1)OCO2 | 998 s
CCOc1ccccc1NC(=O)N1C[C@@H](F)C[C@H]1C(=O)N1CCc2ccccc2C1 | 819 s

Structure (SMILES) | RP-LC retention time
COC(=O)CNC(=O)NCCc1noc(C2CC2)n1 | 598 s
CCC1CN(C(=O)N2CCC(C(=O)NCCN3CCN(C)CC3)CC2)c2ccccc2O1 (centres undefined) | 606 s
Cc1[nH]c(C(=O)N2CCCC(C(=O)NCCN3CCN(C)CC3)C2)c(C)c1C(=O)OC(C)C (centres undefined) | 598 s
Cc1cc(C)cc(Nc2c(C(=O)N3CCCCC3C)cnc3nc(C)ccc23)c1 (centres undefined) | 703 s
CCNc1cc(C)nc(N2CCN(C(=O)c3ccccc3Cl)CC2)n1 | 576 s
O=S(=O)(NCCN1CCN(c2ccc(Cl)cc2)CC1)c1ccc2c(c1)OCCO2 | 620 s
O=C(c1ccncc1)N1CCCN(c2cc(-c3ccc4c(c3)OCO4)[nH]n2)CC1 | 605 s
Cc1ccccc1N1C(=O)CN(S(=O)(=O)c2ccccc2)CC1(C)C(=O)NCCC(C)C (centres undefined) | 970 s
COc1ccc(C2Cn3nnc(-c4nc(C)no4)c3CO2)cc1 (centres undefined) | 833 s
Cc1nnc(C2CCCCCN2S(=O)(=O)c2ccc(F)c(C)c2)o1 (centres undefined) | 893 s
CCC(C)NC(=O)N1CCN(Cc2nc3cc(C(=O)N(CC)CC)ccc3o2)CC1 (centres undefined) | 619 s
CCNC(=O)c1nnc(-c2ccc(S(=O)(=O)N3CCCC3)cc2)o1 | 753 s
COc1ccc(-c2nnc(N3CCC(C(=O)N4CCN(c5ccccc5)CC4)CC3)o2)cc1 | 859 s
COc1ccc(CN2C=C(C(=O)OCc3noc(-c4ccccc4)n3)C(C)=NS2(=O)=O)cc1 | 1100 s
CSc1cccc(NC(=O)N2CCN(Cc3nc4cc(C)ccc4o3)CC2)c1 | 776 s
CC(=O)Nc1cccc(-c2nc(-c3ccc4oc(-c5ccccc5)nc4c3)no2)c1 | 769 s
Cc1cc(C)cc(NC(=O)C2CCCN2S(=O)(=O)c2cc3c(cc2C)NC(=O)C(C)O3)c1 (centres undefined) | 852 s
O=[N+]([O-])c1ccccc1S(=O)(=O)Nc1ccc(N2CCOCC2)cc1 | 749 s
CCOCCCNC(=O)C1c2c(n(C)c3ccccc23)SCC(=O)N1Cc1ccc(OC)cc1 (centres undefined) | 875 s
CC(C)c1nc(-n2cccc2)sc1C(=O)Nc1ccccc1F | 1270 s
CSCc1nnc(NC(=O)c2ccc(S(=O)(=O)N3CC(C)OC(C)C3)cc2)o1 (centres undefined) | 704 s
COc1ccc(Cn2c(=O)c3sccc3n(Cc3nc(-c4ccc(F)cc4)no3)c2=O)cc1 | 1080 s
